These results are taken from patent US20110263608A1, “16-KETO ASPERGILLIMIDES AND HARMFUL ORGANISM CONTROL AGENT COMPRISING THE SAME AS ACTIVE INGREDIENT” (Meiji Seika Pharma Co., Ltd., priority 2008, published 2011).

Holding throughout (format): in vivo
For data set [1], the system named is Haemaphysalis longicornis. The data set is described as follows: Tickcidal effect against Haemaphysalis longicornis (dry film in glass vial). The following applies: 24 h, read-out: Death rate after one day. On the procedure:
Acetone solution (30 μl) of 200 ppm of compounds 1 to 9 and 20 ppm of compounds A and B was placed in 4 mL-volume glass vials. The vials were placed on a shaker, and a dry film of the compound was formed on the inner wall of the vials. The vials were dried for 24 hr or longer. Larva ticks of Haemaphysalis longicornis (10 heads) were released in the vials, and the vials were lidded.
(§1) Death rate (%)={number of dead larvae/(number of survived larvae+number of dead larvae)}×100

A further data set has as its system Aphis gossypii. The data set can be described thus: Insecticidal effect against Aphis gossypii (cucumber leaf disk). The following applies: foliar, 72 h, read-out: insecticidal activity (death rate). On the procedure:
A leaf disk having a diameter of 2.0 cm was cut out from a cucumber in pot culture, and test solutions adjusted to a 200 ppm concentration (50% aqueous acetone solution; 0.05% Tween 20 added) were applied to the leaf disk. The leaf disk was then air dried, and first instar larvae were released and were then allowed to stand in a humidistat chamber (light period 16 hr—dark period 8 hr) (25° C.). […] The test was duplicated.
as §1

The next data set has as its system Laodelphax striatellus. The data set can be described thus: Insecticidal effect against Laodelphax striatellus (root absorption, wheat seedlings). The following applies: 72 h, read-out: insecticidal activity (death rate). On the procedure: A test solution (200 μl) adjusted to a 100 ppm concentration (10% aqueous acetone solution) was applied to the root of wheat seedlings in water culture. After the absorption of the test solution from the root for 3 days, 10 second instar larvae of Laodelphax striatellus were released, and the wheat seedlings were then allowed to stand in a humidistat chamber (light period 16 hr—dark period 8 hr) (25° C.). […] The test was duplicated.
as §1

Data set [2] has as its system Frankliniella occidentalis. The data set can be described thus: Insecticidal effect against Frankliniella occidentalis (kidney bean leaf disk). The following applies: 100 ppm, first instar larvae, six days after release. On the procedure: A leaf disk having a diameter of 2.8 cm was cut out from kidney bean in pot culture, and a test solutions adjusted to a 100 ppm concentration (50% aqueous acetone solution; 0.05% Tween 20 added) were applied to the leaf disk. The leaf disk was then air dried, and first instar larvae were released and were then allowed to stand in a humidistat chamber (light period 16 hr—dark period 8 hr) (25° C.). […] The test was duplicated. Death rate (%)={number of dead larvae/(number of survived larvae+number of dead larvae)}×100

A further data set concerns Ctenocephalides felis. The data set can be described thus: Fleacidal effect against Ctenocephalides felis (treated filter paper). The following applies: 6.3 ppm acetone solution (200 μL) on filter paper, adults. As for the experimental part: Acetone solution (200 μL) of 6.3 ppm of compound A was dropped on a filter paper having a diameter of 4.0 cm, and the filter paper was air-dried at room temperature to evaporate acetone. The chemical compound-treated filter paper was tightly fitted into a lid (diameter: 3.7 cm) for a 200-mL vial. About 25 adults of Ctenocephalides felis one to 3 days after adult eclosion were released in the 200 mL-volume vial, and the vial was then sealed by the vial lid with the chemical compound-treated filter paper fitted thereinto. The vial was inverted so that Ctenocephalides felis came into contact with the filter paper and, in this state, was left to stand. […] The test was triplicated.
as §1

The nature of data set [3]: Single oral administration acute toxicity against rat. The following applies: female, Jcl: Wistar, in vivo, 2000 mg/kg, single oral administration. On the procedure: (§2) Compound A was suspended at a concentration of 100 mg/mL using 0.5% methylcellulose. The test solution was forcibly orally administered to rats (Jcl: Wistar, female, 8 week olds) with a tube and a disposable syringe. The dose was 2000 mg/kg. […]

Data set [4] has as its system rats (Jcl: Wistar, female). The description is as above. The following applies: single oral dose 2000 mg/kg, 15 days. On the procedure:
as §2

The test system of data set [5] is Haemaphysalis longicornis. The data set is described as follows: Tickcidal effect against Haemaphysalis longicornis on body surface of mouse. The following applies: larvae.
Excerpt: Skin hair on the back of mice (ICR, male, 5 week olds) was clipped in a diameter of about 2 cm, and a 15-mL polystyrene conical tube cut to have a height of about 1.5 cm was bonded to the body surface of the mice with an instant adhesive.
as §1

The mark [6] stands for this setting: 200 ppm acetone solution (30 μl), dry film, larva ticks, 25 C.
[7] abbreviates: 200 ppm, first instar larvae, three days after release.
Setting [8] is: 100 ppm (200 μl) to root, second instar larvae, three days after release.

Like-named read-outs stand apart in the source and are kept apart here. A value given as a limit tells only on which side of the number the result lay.

On to `C[C@H]1CC(=O)N2C[C@]34C[C@]5(C[C@@H](O)N(C)C5=O)C(C)(C)[C@H]3C[C@]12C(=O)N4C` [Compound 1], for which the pest or weed control at 200 µg/mL in data set [1] amounted to 80%. Further, the pest or weed control at 200 ppm in the data set with Aphis gossypii was at least 80%. In the data set on Laodelphax striatellus, the pest or weed control at 100 ppm amounted to 100%.
Turning to `CC(=O)O[C@@H]1C[C@]2(C[C@@]34CN5C(=O)C[C@H](C)[C@]5(C[C@@H]3C2(C)C)C(=O)N4C)C(=O)N1C` [Compound 2], the pest or weed control at 200 µg/mL in data set [1] (setting [6]) worked out at 100%. Besides, the pest or weed control at 200 ppm in the data set on Aphis gossypii (setting [7]) was at least 80%. Also, the pest or weed control at 100 ppm in the data set on Laodelphax striatellus (setting [8]) is 100%.
As to `C[C@H]1CC(=O)N2C[C@]34C[C@]5(C=CN(C)C5=O)C(C)(C)[C@@H]3C[C@]12C(=O)N4C` [Compound 3], the pest or weed control at 200 µg/mL in data set [1] is 80%. Besides, the pest or weed control at 200 ppm in the data set on Aphis gossypii was at least 80%. Also, the pest or weed control at 100 ppm in the data set on Laodelphax striatellus is 100%.
The matching figures for `C[C@H]1CC(=O)N2C[C@]34C[C@]5(CCN(C)C5=O)C(C)(C)[C@@H]3C[C@]12C(=O)N4C` [Compound 4]: 100%, at least 80% and 100%.
Take `C[C@H]1CC(=O)N2C[C@@]34C[C@@]5(C(=O)N(C)C=C5C5C[C@]6(C[C@]78CN9C(=O)C[C@H](C)[C@@]9(C[C@H]7C6(C)C)C(=O)N8C)C(=O)N5C)C(C)(C)[C@@H]3C[C@]12C(=O)N4C` (some centres unmarked) [Compound 5]: in the data set with Aphis gossypii, the pest or weed control at 200 ppm is at least 80%.
Regarding `C[C@H]1CC(=O)N2C[C@]34C[C@@]5(C(=O)N(C)C6OC65)C(C)(C)[C@@H]3C[C@]12C(=O)N4C` (some centres unmarked) [Compound 6], in data set [1], the pest or weed control at 200 µg/mL is 100%. In the data set with Aphis gossypii, the pest or weed control at 200 ppm is at least 80%. The pest or weed control at 100 ppm in the data set on Laodelphax striatellus was 100%.
With `C[C@H]1CC(=O)N2C[C@]34C[C@@]5(C(=O)N(C)C(=O)C5O)C(C)(C)[C@@H]3C[C@]12C(=O)N4C` (some centres unmarked) [Compound 7], the pest or weed control at 200 µg/mL in data set [1] (setting [6]) was determined as 100%. The pest or weed control at 200 ppm with Aphis gossypii (setting [7]) was at least 80%. For the same molecule, the pest or weed control at 100 ppm with Laodelphax striatellus (setting [8]) worked out at 100%.
Consider `COC1C[C@]2(C[C@@]34CN5C(=O)C[C@H](C)[C@]5(C[C@@H]3C2(C)C)C(=O)N4C)C(=O)N1C` (some centres unmarked) [Compound 8], for which, in data set [1] (setting [6]), the pest or weed control at 200 µg/mL stood at 100%. Besides, in the data set on Aphis gossypii (setting [7]), the pest or weed control at 200 ppm was at least 80%. Further, the “insecticidal activity (death rate)” value in data set [2] is reported as “not less than 80%”. In addition, the pest or weed control at 100 ppm with Laodelphax striatellus (setting [8]) is 100%.
In the case of `C[C@H]1CC(=O)N2C[C@]34C[C@]5(CC(OCc6ccccc6)N(C)C5=O)C(C)(C)[C@@H]3C[C@]12C(=O)N4C` (some centres unmarked) [Compound 9], the pest or weed control at 200 µg/mL in data set [1] (setting [6]) is 100%. Also, in the data set with Aphis gossypii (setting [7]), the pest or weed control at 200 ppm is at least 80%. Besides, the pest or weed control at 100 ppm in the data set with Laodelphax striatellus (setting [8]) is 100%.
With `C[C@H]1CC(=O)N2C[C@]34C[C@@]5(C(=O)N(C)C(=O)C5Cc5ccccc5)C(C)(C)[C@@H]3C[C@]12C(=O)N4C` (some centres unmarked) [Compound 10], the pest or weed control at 200 ppm with Aphis gossypii (setting [7]) is at least 80%.
For orientation: LD50 means the dose at which mortality reaches 50%. High values mean lower toxicity, low ones greater toxicity. For the molecule `C[C@H]1CC(=O)N2C[C@]34C[C@]5(CC(=O)N(C)C5=O)C(C)(C)[C@@H]3C[C@]12C(=O)N4C` [Compound A, 16-keto aspergillimide], in data set [1], the pest or weed control at 20 µg/mL amounted to 100%. Further, the “Death rate after three days” value amounted to 73% in the data set with Ctenocephalides felis, 60% in data set [5] (dose 2 μg/2 cm^2 on mouse body surface), 93% in data set [5] (dose 6 μg/2 cm^2 on mouse body surface) and 100% in data set [5] (dose 10 μg/2 cm^2 on mouse body surface). The LD50 at 15 days in data set [3] was at least 2000 mg/kg. The “Cumulative number of dead rats 15 days after administration (number of death/total number of rats tested)” value in data set [4] was 0/3.
For the molecule `C[C@H]1CCN2C[C@]34C[C@]5(CC(=O)N(C)C5=O)C(C)(C)[C@@H]3C[C@]12C(=O)N4C` [Compound B, asperparaline A], the pest or weed control at 20 µg/mL in data set [1] (20 ppm acetone solution (30 μl), dry film, larva ticks, 25 C) stood at 100%.
